5 compounds from ChEMBL document CHEMBL1142525, “Molecular probes for imaging myelinated white matter in CNS” (J Med Chem, 2008) can be followed below.

The source made the active and inactive calls. No cut-off for these calls is given here.

Series [1] is described as follows: Displacement of [3H]BMB from Sprague-Dawley rat brain myelin fractions. The class given is tissue-based.
For the next series, the species on record is Rattus norvegicus. Put plainly: Binding affinity to Sprague-Dawley rat brain myelin fractions at 12.5 uM after 1 hr by UV spectrophotometry.
Series [2] deals with Brain. Nature of the series: Drug uptake in Swiss Webster mouse brain at 0.185 MBq, iv after 30 mins. In kind it is ADME, organism-based. As to conditions: in vivo, 0.5 h.
In series [3] the test system is Brain. Put plainly: Drug uptake in Swiss Webster mouse brain at 0.185 MBq, iv after 60 mins. The class given is ADME, organism-based. Conditions: in vivo, 1 h.
Series [4] deals with Brain. Nature of the series: Drug uptake in Swiss Webster mouse brain at 0.185 MBq, iv after 120 mins. The class given is ADME, organism-based. As to conditions: in vivo, 2 h.
Series [5] in a line: Partition coefficient, log P in 1-octanol/phosphate buffer at pH 7.40. The class given is physicochemical. Conditions: pH 7.4.

For orientation: Ki means the equilibrium dissociation constant of an inhibitor or competing ligand from its target. For `CN(C)c1ccc(/C=C/c2ccc(N)cc2)cc1`, in series [1], the Ki worked out at 119 nM. Further, the result in the series listed under Rattus norvegicus was Active.

As usually defined, the logD is lipophilicity at a set pH, counting ionised and neutral species. Read a low logD as a more hydrophilic compound. Turning to `Nc1ccc(/C=C/c2ccc([125I])cc2)cc1`, the Drug uptake was found to be 2.65 % ID/g in the series with Brain [2], 2.05 % ID/g in the series on Brain [3] and 1.12 % ID/g in the series with Brain [4]. Moreover, the logD in series [5] amounted to 2.5.

Take `Nc1ccc(/C=C/c2ccc(I)cc2)cc1`: in series [1], the Ki is 494 nM.

As for `Nc1ccc(/C=C/c2ccc(N)cc2)cc1`, in series [1], the Ki is 370 nM.

Regarding `CNc1ccc(/C=C/c2ccc(N)cc2)cc1`, the affinity in series [1] corresponds to a Ki of 126 nM. In addition, in the series filed under Rattus norvegicus, the result was Active.
